# Patent publication US20060229322A1, “Anhydrous crystalline form of valacyclovir hydrochloride” (priority 2002, published 2006)
# Structures can show the parent of a compound that is named as a salt.
# Columns and labels:
# [1] = Storage stability of the anhydrous crystalline form at room temperature; format: physicochemical
# Description: (§1) Such stability is vital for a pharmaceutical since stocks thereof may be stored for long periods prior to use. […] The forms of the invention are therefore suitable for transport in countries where ambient temperatures are exceptionally high.
# [2] = format: physicochemical
# Description: as §1
structure (smiles),measurement,setting,value
CC(C)[C@H](N)C(=O)OCCOCn1cnc2c(=O)[nH]c(N)nc21 [valacyclovir hydrochloride],time shown to be stable,[1],over 3 years
same,time for which stability is exhibited when heated,[2],over 550 hours
